{
  "source": "ChEMBL document CHEMBL5096158",
  "about": "“HIV latency reversal agents: A potential path for functional cure?” (Eur J Med Chem, 2021)",
  "key": {"[1]": {"test_system": "Human immunodeficiency virus 1", "assay": "Reactivation of HIV-1 latency infected in human Th17 cells assessed as increase in HIV production by measuring phosphorylated S175 CDK9 levels at 1 uM incubated for 96 hrs by flow cytometry", "assay_type": "functional"}, "[2]": {"test_system": "Human immunodeficiency virus 1", "assay": "Reactivation of HIV-1 latency infected in human Th17 cells assessed as increase in HIV production by measuring phosphorylated S175 CDK9 levels at 10 nM incubated for 96 hrs by flow cytometry", "assay_type": "functional"}, "[3]": {"test_system": "Human immunodeficiency virus 1", "assay": "Reactivation of HIV-1 latency in human ACH-2 cells assessed as fold increase in p24 expression at 1 uM incubated for 24 hrs by western blot analysis", "assay_type": "functional, ACH-2 cell line"}, "[4]": {"test_system": "Human immunodeficiency virus 1", "assay": "Reactivation of HIV-1 latency in human U1 cells assessed as fold increase in p24 expression at 1 uM incubated for 24 hrs by western blot analysis", "assay_type": "functional"}, "[5]": {"test_system": "Human immunodeficiency virus 1", "assay": "Reversal of HIV-1 latency in human ACH-2 cells assessed as increase in GFP positive cells incubated for 24 hrs by flow cytometry", "assay_type": "functional, organism-based, ACH-2 cell line", "conditions": "Human immunodeficiency virus 1, ACH-2, 24 h"}, "[6]": {"test_system": "Human immunodeficiency virus 1", "assay": "Reactivation of HIV-1 latency infected in human J-Lat GFP Clone A72 cells assessed as increase in GFP expression at 5 to 10 mM incubated for 18 hrs by flow cytometry", "assay_type": "functional", "conditions": "dose 5-10 mM"}, "[7]": {"test_system": "Human immunodeficiency virus 1", "assay": "Reversal of HIV-1 latency infected in GFP-fused human J-Lat 10.6 cells increase in GFP expressing cells by FACS analysis", "assay_type": "functional, organism-based", "conditions": "Human immunodeficiency virus 1, J-Lat 10.6"}, "[8]": {"test_system": "Human immunodeficiency virus 1", "assay": "Reactivation of HIV-1 latency in GFP-fused human primary CD4+ve Th cells infected with HIV-1NL4-3 luciferase virus assessed as fold increase in GFP expression incubated for 48 hrs by luciferase luminescence analysis", "assay_type": "functional"}, "[9]": {"test_system": "Human immunodeficiency virus 1", "assay": "Reversal of HIV-1 latency infected in GFP-fused human J-Lat A2 cells assessed as increase in GFP expression at 4 uM incubated for 3 hrs by flow cytometry", "assay_type": "functional"}, "[10]": {"test_system": "Human immunodeficiency virus 1", "assay": "Reversal of HIV-1 latency infected in GFP-fused human J-Lat C11 cells assessed as increase in GFP expression at 4 uM incubated for 3 hrs by flow cytometry", "assay_type": "functional"}, "[11]": {"assay": "Inhibition of HIV-1 latency infected in human ACH-2 cells assessed as fold increase in HIV production by measuring p24 level incubated for 48 hrs in presence of 5-azacytidine by ELISA", "assay_type": "functional, Human immunodeficiency virus 1, ACH-2 cell line"}, "[12]": {"assay": "Inhibition of HIV-1 latency infected in human ACH-2 cells assessed as fold increase in HIV production by measuring p24 level incubated for 48 hrs in presence of vorinostat by ELISA", "assay_type": "functional, Human immunodeficiency virus 1, ACH-2 cell line"}, "[13]": {"test_system": "Human immunodeficiency virus 1", "assay": "Reactivation of HIV-1 latency infected in GFP-fused human J-Lat C11 cells assessed as increase in GFP expression incubated for 48 hrs by flow cytometry", "assay_type": "functional, organism-based", "conditions": "Human immunodeficiency virus 1, J-Lat C11, 48 h"}, "[14]": {"assay": "Cytotoxicity against human J-Lat 10.6 cells assessed as reduction in cell viability incubated for 72 hrs by CCK-8 assay", "assay_type": "toxicity, cell-based"}, "[15]": {"test_system": "Human immunodeficiency virus 1", "assay": "Reactivation of HIV-1 latency infected in GFP-fused human J-Lat C11 cells assessed as increase in GFP expression at 1 to 100000 nM incubated for 48 hrs by flow cytometry", "assay_type": "functional", "conditions": "dose 1-100000 nM"}, "[16]": {"test_system": "Human immunodeficiency virus 1", "assay": "Reactivation of HIV-1 latency infected in GFP-fused human J-Lat 10.6 cells assessed as increase in GFP expression incubated for 48 hrs by flow cytometry", "assay_type": "functional, organism-based", "conditions": "Human immunodeficiency virus 1, J-Lat 10.6, 48 h"}, "[17]": {"test_system": "Human immunodeficiency virus 1", "assay": "Reactivation of HIV-1 latency infected in GFP-fused human J-Lat 10.6 cells assessed as increase in GFP expression at 1 to 100000 nM incubated for 48 hrs by flow cytometry", "assay_type": "functional", "conditions": "dose 1-100000 nM"}, "[18]": {"assay": "Cytotoxicity against human J-Lat C11 cells assessed as reduction in cell viability incubated for 72 hrs by CCK-8 assay", "assay_type": "toxicity, cell-based"}, "[19]": {"test_system": "Human immunodeficiency virus 1", "assay": "Reversal of HIV-1 latency infected in GFP-fused human A10.6 cells assessed as increase in GFP expressing cells at 1 uM incubated for 24 hrs by FACS analysis", "assay_type": "functional, A10.6 cell"}, "[20]": {"test_system": "Human immunodeficiency virus 1", "assay": "Reversal of HIV-1 latency infected in GFP-fused human A10.6 cells assessed as increase in GFP expressing cells at 0.25 uM incubated for 24 hrs by FACS analysis", "assay_type": "functional"}, "[21]": {"test_system": "Human immunodeficiency virus 1", "assay": "Reversal of HIV-1 latency infected in GFP-fused human A10.6 cells assessed as fold increase in acetylation of H4 within Nuc-1 at 0.5 uM incubated for 4 hrs by ChIP assay", "assay_type": "functional, A10.6 cell"}, "[22]": {"test_system": "Human immunodeficiency virus 1", "assay": "Reversal of HIV-1 latency infected in GFP-fused human A10.6 cells assessed as fold increase in acetylation of H3 within Nuc-1 at 0.5 uM incubated for 4 hrs by ChIP assay", "assay_type": "functional, A10.6 cell"}},
  "data": [
    {"smiles": "CCN(c1cc(-c2ccc(CN3CCOCC3)cc2)cc(C(=O)NCc2c(C)cc(C)[nH]c2=O)c1C)C1CCOCC1", "note": "[TAZEMETOSTAT]", "values": [
      {"measurement": "Activity", "setting": "[1]", "result": 35, "unit": "%"},
      {"measurement": "Activity", "setting": "[2]", "result": 25, "unit": "%"}
    ]},
    {"smiles": "CC[C@@H]1C(=O)N(C)c2cnc(Nc3ccc(C(=O)NC4CCN(C)CC4)cc3OC)nc2N1C1CCCC1", "note": "[BI-2536]", "values": [
      {"measurement": "fold change (FC)", "setting": "[3]", "result": 261},
      {"measurement": "fold change (FC)", "setting": "[4]", "result": 177}
    ]},
    {"smiles": "CC(C)[C@H]1C(=O)N[C@H](CO)Cc2c[nH]c3cccc(c23)N1C", "note": "[INDOLACTUM]", "values": [
      {"measurement": "EC50", "setting": "[5]", "result": 47, "unit": "nM"}
    ]},
    {"smiles": "O=C(NCCCN1CCCC1)c1cncc(-c2ccccc2N2CCN(CCc3c[nH]c4ccccc34)CC2)c1", "values": [
      {"measurement": "Activity", "setting": "[6]", "result": 30, "unit": "%"}
    ]},
    {"smiles": "O=C(/C=C/c1ccc(NC(=O)C(Cc2ccccc2)c2ccccc2)cn1)NO", "note": "(stereo not drawn)", "values": [
      {"measurement": "EC50", "setting": "[7]", "result": 350, "unit": "nM"},
      {"measurement": "fold change (FC)", "setting": "[8]", "result": 6.4}
    ]},
    {"smiles": "CCCc1cc(C)[nH]c(=O)c1CNC(=O)c1cc(-c2ccnc(N3CCN(C)CC3)c2)cc2c1cnn2C(C)C", "values": [
      {"measurement": "Activity", "setting": "[1]", "result": 35, "unit": "%"},
      {"measurement": "Activity", "setting": "[2]", "result": 20, "unit": "%"}
    ]},
    {"smiles": "O=C(CCCCSc1nc(-c2ccc(-c3ccccc3)cc2)cc(=O)[nH]1)NO", "values": [
      {"measurement": "EC50", "setting": "[7]", "result": 350, "unit": "nM"},
      {"measurement": "fold change (FC)", "setting": "[8]", "result": 4.3}
    ]},
    {"smiles": "Nc1ccc(F)cc1NC(=O)c1ccc(CNC(=O)/C=C/c2cccnc2)cc1", "values": [
      {"measurement": "Activity", "setting": "[9]", "result": 80.6, "unit": "%"},
      {"measurement": "Activity", "setting": "[10]", "result": 82.6, "unit": "%"}
    ]},
    {"smiles": "COc1cc2nc(N3CCCN(C)CC3)nc(NC3CCN(Cc4ccccc4)CC3)c2cc1OC", "values": [
      {"measurement": "fold change (FC)", "setting": "[11]", "result": 47},
      {"measurement": "fold change (FC)", "setting": "[12]", "result": 47}
    ]},
    {"smiles": "CCCCCCCCCCCC(=O)OCC1=C[C@H]2C(=O)[C@]3(C=C(C)[C@H](OC(=O)CC(C)C(C)C)[C@@]3(O)[C@@H]1O)[C@H](C)CC1C2C1(C)C", "note": "(stereo partly drawn)", "values": [
      {"measurement": "EC50", "setting": "[13]", "result": 3.53, "unit": "nM"},
      {"measurement": "CC50 at 72 h", "setting": "[14]", "result": 94.2, "unit": "nM"},
      {"measurement": "Activity", "setting": "[15]", "result": 80, "unit": "%"},
      {"measurement": "EC50", "setting": "[16]", "result": 4.06, "unit": "nM"},
      {"measurement": "Activity", "setting": "[17]", "result": 90, "unit": "%"},
      {"measurement": "CC50 at 72 h", "setting": "[18]", "result": 68.5, "unit": "nM"}
    ]},
    {"smiles": "COc1cc2c(NC3CCN(C(C)C)CC3)nc(C3CCCCC3)nc2cc1OCCCN1CCCC1", "values": [
      {"measurement": "Activity", "setting": "[1]", "result": 35, "unit": "%"},
      {"measurement": "Activity", "setting": "[2]", "result": 22, "unit": "%"}
    ]},
    {"smiles": "CCC(=O)CCCCC[C@@H]1NC(=O)[C@H]2CCCCN2C(=O)[C@H]([C@@H](C)CC)NC(=O)[C@H](Cc2cc3ccccc3n2OC)NC1=O", "values": [
      {"measurement": "Activity", "setting": "[19]", "result": 24.9, "unit": "%"},
      {"measurement": "Activity", "setting": "[20]", "result": 7.5, "unit": "%"},
      {"measurement": "fold change (FC)", "setting": "[21]", "result": 3.15},
      {"measurement": "fold change (FC)", "setting": "[22]", "result": 1.34}
    ]}
  ]
}
